Legend:
Assay in all cases: KINOMEscan competition binding
Settings in all cases: compound 10.0 µM
[1] = test system: ABL1 (human), P00519 [F317I]
[2] = target: ABL1 (human) (UniProt P00519)
[3] = target: BUB1 (human) (UniProt O43683)
[4] = target: RPS6KA3 KD2 (human) (UniProt P51812)
[5] = target: GSG2 (human) (UniProt Q8TF76)
[6] = target: NEK10 (human) (UniProt Q6ZWH5)
Sequence of NEK10 (human) (Q6ZWH5 whole entry, looked up): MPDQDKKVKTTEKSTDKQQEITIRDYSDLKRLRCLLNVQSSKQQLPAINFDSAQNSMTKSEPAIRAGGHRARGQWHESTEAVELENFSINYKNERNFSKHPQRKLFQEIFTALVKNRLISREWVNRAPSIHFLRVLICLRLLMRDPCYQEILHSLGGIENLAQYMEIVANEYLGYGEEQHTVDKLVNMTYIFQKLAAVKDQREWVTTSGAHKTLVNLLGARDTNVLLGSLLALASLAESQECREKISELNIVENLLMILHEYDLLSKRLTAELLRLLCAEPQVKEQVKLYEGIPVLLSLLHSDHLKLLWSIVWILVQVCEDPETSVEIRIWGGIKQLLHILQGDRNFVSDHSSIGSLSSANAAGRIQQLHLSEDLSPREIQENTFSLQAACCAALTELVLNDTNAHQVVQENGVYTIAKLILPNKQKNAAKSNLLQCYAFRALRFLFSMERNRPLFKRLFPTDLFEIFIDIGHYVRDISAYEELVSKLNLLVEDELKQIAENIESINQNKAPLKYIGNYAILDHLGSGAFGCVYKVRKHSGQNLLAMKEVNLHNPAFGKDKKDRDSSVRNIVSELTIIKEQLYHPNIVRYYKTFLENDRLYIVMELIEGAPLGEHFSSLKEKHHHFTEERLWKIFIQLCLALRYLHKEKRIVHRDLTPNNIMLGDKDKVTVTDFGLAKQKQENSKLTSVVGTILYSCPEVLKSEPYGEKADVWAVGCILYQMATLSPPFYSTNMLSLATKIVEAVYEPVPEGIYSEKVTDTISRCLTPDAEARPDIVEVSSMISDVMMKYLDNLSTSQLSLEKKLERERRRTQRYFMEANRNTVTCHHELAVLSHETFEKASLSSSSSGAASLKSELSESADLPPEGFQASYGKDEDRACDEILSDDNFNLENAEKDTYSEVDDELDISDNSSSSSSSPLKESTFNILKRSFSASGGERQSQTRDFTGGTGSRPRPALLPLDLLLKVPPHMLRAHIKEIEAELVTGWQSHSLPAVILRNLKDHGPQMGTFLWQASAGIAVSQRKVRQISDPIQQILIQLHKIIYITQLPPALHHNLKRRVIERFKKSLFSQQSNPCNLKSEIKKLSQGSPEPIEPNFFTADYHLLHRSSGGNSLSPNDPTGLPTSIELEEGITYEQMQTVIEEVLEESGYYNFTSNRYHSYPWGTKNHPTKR

Sequence of ABL1 (human), P00519 [F317I] (P00519 whole entry F317I, looked up): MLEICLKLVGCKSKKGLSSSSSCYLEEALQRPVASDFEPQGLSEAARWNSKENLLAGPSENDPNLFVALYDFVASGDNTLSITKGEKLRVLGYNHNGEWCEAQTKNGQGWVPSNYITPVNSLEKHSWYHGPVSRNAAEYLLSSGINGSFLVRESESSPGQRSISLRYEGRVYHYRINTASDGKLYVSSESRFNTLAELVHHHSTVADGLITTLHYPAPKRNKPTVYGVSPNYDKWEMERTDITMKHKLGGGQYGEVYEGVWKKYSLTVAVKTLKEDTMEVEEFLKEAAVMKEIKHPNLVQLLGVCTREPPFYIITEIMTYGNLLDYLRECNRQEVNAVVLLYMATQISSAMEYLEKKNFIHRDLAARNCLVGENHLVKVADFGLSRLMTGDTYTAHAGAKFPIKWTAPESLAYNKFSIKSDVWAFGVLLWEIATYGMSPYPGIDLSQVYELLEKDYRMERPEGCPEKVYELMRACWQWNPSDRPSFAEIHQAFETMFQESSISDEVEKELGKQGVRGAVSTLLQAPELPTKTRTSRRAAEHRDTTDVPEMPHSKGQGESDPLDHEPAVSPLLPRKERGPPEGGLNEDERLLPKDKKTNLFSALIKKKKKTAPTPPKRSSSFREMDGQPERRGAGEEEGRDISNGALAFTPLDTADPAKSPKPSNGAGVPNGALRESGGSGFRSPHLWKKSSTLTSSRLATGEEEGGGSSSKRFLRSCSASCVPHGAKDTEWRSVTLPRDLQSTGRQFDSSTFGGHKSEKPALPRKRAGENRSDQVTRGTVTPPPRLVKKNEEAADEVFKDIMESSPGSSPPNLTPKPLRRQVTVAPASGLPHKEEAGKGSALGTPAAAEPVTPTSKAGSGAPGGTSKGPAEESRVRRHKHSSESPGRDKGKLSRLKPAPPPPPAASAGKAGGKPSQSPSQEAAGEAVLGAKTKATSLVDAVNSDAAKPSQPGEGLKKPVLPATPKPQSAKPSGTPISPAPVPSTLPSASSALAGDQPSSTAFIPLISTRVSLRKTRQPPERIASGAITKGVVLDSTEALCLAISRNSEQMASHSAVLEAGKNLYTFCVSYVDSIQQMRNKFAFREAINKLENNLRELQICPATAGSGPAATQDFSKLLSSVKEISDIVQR
Sequence of BUB1 (human) (O43683 whole entry, looked up): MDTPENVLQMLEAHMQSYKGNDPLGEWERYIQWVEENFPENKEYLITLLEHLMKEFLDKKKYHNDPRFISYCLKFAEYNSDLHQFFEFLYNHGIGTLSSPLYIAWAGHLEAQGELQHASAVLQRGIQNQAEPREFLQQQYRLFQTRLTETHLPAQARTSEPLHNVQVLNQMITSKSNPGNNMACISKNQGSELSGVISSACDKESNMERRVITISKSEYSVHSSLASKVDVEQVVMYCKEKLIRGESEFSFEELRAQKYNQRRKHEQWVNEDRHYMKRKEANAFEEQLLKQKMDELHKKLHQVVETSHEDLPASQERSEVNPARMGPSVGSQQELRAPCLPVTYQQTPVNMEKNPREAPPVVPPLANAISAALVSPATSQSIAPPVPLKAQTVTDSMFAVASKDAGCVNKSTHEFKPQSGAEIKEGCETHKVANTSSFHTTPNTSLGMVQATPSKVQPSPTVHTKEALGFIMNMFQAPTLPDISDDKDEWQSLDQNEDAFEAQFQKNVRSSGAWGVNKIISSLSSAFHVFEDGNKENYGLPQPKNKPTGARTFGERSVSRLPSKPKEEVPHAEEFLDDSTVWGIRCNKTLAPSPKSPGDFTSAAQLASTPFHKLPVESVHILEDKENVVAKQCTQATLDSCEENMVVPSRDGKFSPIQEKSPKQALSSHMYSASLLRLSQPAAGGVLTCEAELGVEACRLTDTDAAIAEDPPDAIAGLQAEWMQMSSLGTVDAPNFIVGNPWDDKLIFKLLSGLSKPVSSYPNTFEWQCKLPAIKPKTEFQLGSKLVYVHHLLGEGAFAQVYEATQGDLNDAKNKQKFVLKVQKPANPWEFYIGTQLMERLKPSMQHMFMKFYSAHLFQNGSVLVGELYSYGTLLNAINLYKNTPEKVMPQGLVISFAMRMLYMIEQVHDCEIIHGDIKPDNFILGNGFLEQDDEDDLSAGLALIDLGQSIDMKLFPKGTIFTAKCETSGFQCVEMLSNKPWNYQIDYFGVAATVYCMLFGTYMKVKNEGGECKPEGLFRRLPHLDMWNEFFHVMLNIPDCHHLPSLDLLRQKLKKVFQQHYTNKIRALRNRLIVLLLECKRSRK
Sequence of RPS6KA3 KD2 (human) (P51812 whole entry, looked up): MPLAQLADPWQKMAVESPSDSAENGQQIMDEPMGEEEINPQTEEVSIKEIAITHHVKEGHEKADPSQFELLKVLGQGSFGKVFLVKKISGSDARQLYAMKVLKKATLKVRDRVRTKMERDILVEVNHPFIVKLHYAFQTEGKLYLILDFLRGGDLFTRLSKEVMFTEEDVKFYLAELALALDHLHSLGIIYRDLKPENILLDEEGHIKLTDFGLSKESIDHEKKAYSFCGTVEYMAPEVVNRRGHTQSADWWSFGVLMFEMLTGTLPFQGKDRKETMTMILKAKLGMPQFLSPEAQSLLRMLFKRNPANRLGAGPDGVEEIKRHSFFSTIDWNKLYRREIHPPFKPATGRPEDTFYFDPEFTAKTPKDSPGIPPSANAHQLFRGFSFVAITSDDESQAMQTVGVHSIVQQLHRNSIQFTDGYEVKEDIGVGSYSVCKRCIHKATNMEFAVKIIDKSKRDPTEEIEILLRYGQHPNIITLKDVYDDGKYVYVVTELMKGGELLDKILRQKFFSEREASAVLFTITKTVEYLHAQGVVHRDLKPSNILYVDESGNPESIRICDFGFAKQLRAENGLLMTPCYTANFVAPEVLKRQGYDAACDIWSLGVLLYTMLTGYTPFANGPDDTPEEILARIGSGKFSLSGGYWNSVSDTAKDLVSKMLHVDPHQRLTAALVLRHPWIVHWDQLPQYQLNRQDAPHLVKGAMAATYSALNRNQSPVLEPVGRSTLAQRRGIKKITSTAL
Sequence of GSG2 (human) (Q8TF76 whole entry, looked up): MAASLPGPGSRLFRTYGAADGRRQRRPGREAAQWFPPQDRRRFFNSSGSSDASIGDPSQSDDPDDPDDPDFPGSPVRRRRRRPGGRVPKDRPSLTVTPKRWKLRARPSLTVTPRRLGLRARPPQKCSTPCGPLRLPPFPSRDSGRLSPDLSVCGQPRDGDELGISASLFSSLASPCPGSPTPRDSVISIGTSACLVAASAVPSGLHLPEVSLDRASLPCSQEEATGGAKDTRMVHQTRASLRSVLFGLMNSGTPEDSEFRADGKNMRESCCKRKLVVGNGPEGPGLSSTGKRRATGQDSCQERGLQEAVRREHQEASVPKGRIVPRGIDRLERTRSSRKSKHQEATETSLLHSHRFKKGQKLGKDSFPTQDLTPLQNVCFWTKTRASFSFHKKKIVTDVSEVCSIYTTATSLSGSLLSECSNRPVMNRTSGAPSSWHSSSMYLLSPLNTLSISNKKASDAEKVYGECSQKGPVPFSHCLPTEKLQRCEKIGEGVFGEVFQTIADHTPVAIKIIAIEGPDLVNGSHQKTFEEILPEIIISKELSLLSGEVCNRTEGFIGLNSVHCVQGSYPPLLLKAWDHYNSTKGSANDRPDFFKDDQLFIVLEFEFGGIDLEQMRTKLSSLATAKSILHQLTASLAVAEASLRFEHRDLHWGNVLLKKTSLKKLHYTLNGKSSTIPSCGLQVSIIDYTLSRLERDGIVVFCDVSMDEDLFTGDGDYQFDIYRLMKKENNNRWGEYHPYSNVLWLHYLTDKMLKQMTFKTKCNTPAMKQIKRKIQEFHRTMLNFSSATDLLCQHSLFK
Sequence of ABL1 (human) (P00519 whole entry, looked up): as the sequence (P00519 whole entry F317I, looked up) above, with I317F counted along it

Cc1cn(-c2cc(C(=O)Nc3ccc(C)c(NC(=O)c4ccno4)c3)cc(C(F)(F)F)c2)cn1
kinase still bound, per cent of control [1]: 0.95%
kinase still bound, per cent of control [2]: 8%

COc1ccc(N(C(=O)Oc2cc(C(=O)Nc3cccc(C(F)(F)F)c3)ccc2C)c2ccnc(Nc3ccc(N4CCN(C)CC4)cc3)n2)c(OC)c1
kinase still bound, per cent of control [2]: 2%

CNC(=O)Nc1ccc(-c2nc(N3CC4CCC(C3)O4)c3cnn(C4CCC5(CC4)OCCO5)c3n2)cc1
kinase still bound, per cent of control [3]: 52%
kinase still bound, per cent of control [4]: 100%
kinase still bound, per cent of control [5]: 100%

COc1cc(C)c(Sc2cnc(NC(=O)c3ccc(CNC(C)C(C)C)cc3)s2)cc1C(=O)N1CCN(C(C)=O)CC1 (stereo not given)
kinase still bound, per cent of control [1]: 100%
kinase still bound, per cent of control [2]: 100%

COc1cc2ncnc(Nc3cccc(Cl)c3)c2cc1OC
kinase still bound, per cent of control [6]: 91%
kinase still bound, per cent of control [3]: 0.3%
kinase still bound, per cent of control [4]: 71%
kinase still bound, per cent of control [5]: 100%

CCOc1cc(N2CCC(O)CC2)ccc1Nc1ncc2c(n1)N(C)c1ccccc1C(=O)N2C
kinase still bound, per cent of control [1]: 30%
kinase still bound, per cent of control [2]: 100%

O=c1[nH]c2ccccc2n1C1CCN(Cc2ccc(-c3nc4cc5[nH]cnc5cc4nc3-c3ccccc3)cc2)CC1
kinase still bound, per cent of control [6]: 78%
kinase still bound, per cent of control [3]: 64%
kinase still bound, per cent of control [4]: 100%
kinase still bound, per cent of control [5]: 100%

COc1cc(N2CCC(C(N)=O)CC2)ccc1Nc1nc(N)c(Cl)c(Nc2ccccc2S(=O)(=O)C(C)C)n1
kinase still bound, per cent of control [1]: 4.8%
kinase still bound, per cent of control [2]: 100%
